# Laboratory results published in patent US4266034A, “Method for producing microbial cells and use thereof to produce oxidation products” (priority 1979, dated 1981).
# Columns and labels:
# [1] = system: secondary alcohol dehydrogenase; test: Purified yeast-derived secondary alcohol dehydrogenase activity; format: biochemical, Pichia sp. NRRL Y-11,328; details: purified enzyme
# Protocol: Large scale cultures of Pichia sp. NRRL Y-11,328 were grown with aeration at 30° C. in a 14-liter New Brunswick f fermentor in a mineral salt medium containing methanol (0.4%, v/v) as the sole carbon source. The cells (200 g., wet weight) were suspended in […] sodium phosphate buffer, pH 7.0, containing 1 mM dithiothreitol (buffer A), and crude extracts were prepared as described previously. To the crude extracts, 18 ml. of protamine sulfate solution [2% solution in 0.1 M tris (hydroxymethyl) aminomethane (tris) base] was added dropwise with continuous stirring. After standing for 30 min., the extracts were centrifuged at 20,000×g. for 60 min. The supernatant solution was fractionated with solid ammonium sulfate. Extracts were brought to 50% of saturation with respect to ammonium sulfate by addition of 313 g. of the salt per liter of extract. Precipitated proteins was removed by centrifugation, and 137 g. of ammonium sulfate was added per liter of the supernatant liquid to bring it to 70% of saturation. Material precipitating between 50 and 70% of saturation was collected by centrifugation and dissolved in buffer A. This preparation was dialyzed overnight against buffer A, and the dialyzed material was applied to a DEAE-cellulose column (5×40 cm) that had been equilibrated with buffer A. The sample was washed with 200 ml. of buffer A and eluted with 2 liters of buffer A that contained NaCl in a linear gradient running from a concentration of 0 to 0.5 M. Fractions of 15 ml. were collected. Fractions containing secondary alcohol dehydrogenase activity were pooled and were termed DEAE-cellulose eluate. The DEAE-cellulose eluate was concentrated by ammonium sulfate fractionation.
# Secondary alcohol dehydrogenase activity was measured spectrophotometrically at 340 nm with a NAD^+ as an electron acceptor. The reaction mixture, in a total 3.0 ml., contained 50 mM phosphate buffer, pH 8.0, 5 μmoles NAD^+, crude extracts, and substrate. […] Protein concentration was determined by the method of Lowry et al.
# The substrate specificity of the purified secondary alcohol dehydrogenase was examined spectrophotometrically.
# [2] = system: secondary alcohol dehydrogenase; test: Cofactor requirement of cell-free soluble extracts oxidizing 2-butanol; format: biochemical; details: cell-free systems
# Protocol: Catalytic activity was also assayed by fluorescence spectrophotometry.
# [3] = system: methanol-grown Methylococcus capsulatus CRL M1 (NRRL B-11,219); test: Production of 2-butanone from 2-butanol by cell suspensions, inhibition studies; format: cell-based; details: 1 mM
# [4] = system: secondary alcohol dehydrogenase (SADH); test: Purified secondary alcohol dehydrogenase (SADH) activity; format: biochemical, Pseudomonas sp. ATCC 21439; details: each inhibitor 1 mM; measured spectrofluorometrically
# Protocol: Secondary alcohol dehydrogenase (SADH) from an obligate methanol utilizer, Pseudomonas sp. ATCC 21439 was purified as follows. […] 0.05 M sodium phosphate buffer, pH 7.0 with 0.5 mM dithiothretol (buffer A) and were disrupted sonically (5×1 min.). The crude extract was separated by centrifugation. The crude extract was heat-treated at 50° C. in a water bath for 10 minutes. The resulting precipitate was removed by centrifugation. To the supernatant solution, 25 ml of protamine sulfate solution (2% solution in 0.1 M Tris base) was added dropwise with continuous stirring. After standing for 30 minutes, the extract was centrifuged. The supernatant solution was fractionated with solid ammonium sulfate. The material precipitating between 30 and 60% saturation was collected and was dialized overnight against buffer A. The The dialized material was applied to a DEAE-cellulose column (3 cm by 35 cm) that had been equilibrated with buffer A. The secondary alcohol dehydrogenase activity was eluted in the void volume. This DEAE-cellulose eluate was concentrated by ammonium sulfate fractionation. Material precipitating between 30 and 50% ammonium sulfate saturation was collected by centrifugation and dialyzed overnight against A. This fraction was further washed and filtered through an Amicon unit with XM 50 membrane. The concentrated fraction (6 ml) inside the Amicon unit was applied to an Affi-Gel Blue column (0.8 cm×18 cm) which had been equilibrated with buffer A for affinity chromatography. The column was washed overnight with buffer A (0.18 ml./min.) and then was eluted with buffer A containing 5 mM NAD. Each 1 ml. fraction was collected.
# The purified secondary alcohol dehydrogenase enzyme (SADH) may be used directly for converting C3 -C6 secondary alcohols to the corresponding methyl ketones by the procedures described above; however, a source of NAD^+ must be added to the reaction medium. One can determine the NAD-linked secondary alcohol dehydrogenase activity with a fluorescence spectrophotometer (Perkin Elmer, Model MPF 44A) by following the formation of reduced NAD (Ex 340 nm, Em 460 nm). The assay system (3 ml.) will typically contain: sodium phosphate buffer pH 7.0, 150 μmol; NAD 1.0 μmol; a given amount of enzyme preparation; and 20 μmol secondary alcohol. The reaction is started by the addition of secondary alcohol. One unit of SADH enzyme activity represents the reduction of one nmole NAD per minute.
# The effect of metal-chelating agents and thioreagents on the activity of the purified SADH enzyme were studied. […] The possibility of ethanol or n-propanol as an inhibitor was studied.
# [5] = system: cell-free particulate fractions derived from the methylotrophic microorganisms; test: Inhibition of conversion of C3-C6 n-alkanes to sec. alcohols by cell-free particulate fractions; format: biochemical; details: oxygen and NADH
# Source text: The conditions for preparing the cell suspensions or the cell-free particulate fractions from methane-grown methylotroph microorganisms is the same as described above. […] Tables XXV and XXVI show the conversion of C3 -C6 n-alkanes to the corresponding secondary alcohols using cell suspensions and cell-free particulate fractions, respectively, of methane-grown methylotroph microorganisms.
Structure (SMILES),ability to act as electron carrier in place of NAD^+ [1],effectiveness as cofactor in place of NAD [2],Inhibition (%) of production of 2-butanone [3],% inhibition of SADH activity [4] [%],inhibition of the conversion of n-alkanes to sec. alcohols [5],inhibition of secondary alcohol dehydrogenase activity [1],Inhibition of 2-butanone production (yes/no) [3]
"O=C1C(Cl)=CC(=Nc2ccc(O)cc2)C=C1Cl [2,6-dichlorophenol indophenol]",could not act as electron carrier,not effective,,,,,
"c1ccc(-c2ccccn2)nc1 [α,α-Bipyridyl]",,,inhibited,70,inhibited,,
NC(N)=S [Thiourea],,,not inhibited,,inhibited,,
Cc1cc2nc3c(=O)[nH]c(=O)nc-3n(C[C@H](O)[C@H](O)[C@H](O)COP(=O)(O)OP(=O)(O)OC[C@H]3O[C@@H](n4cnc5c(N)ncnc54)[C@H](O)[C@@H]3O)c2cc1C [flavin adenine dinucleotide],could not act as electron carrier,not effective,,,,,
"c1cnc2c(c1)ccc1cccnc12 [1,10-Phenanthroline]",,,,95,inhibited,strongly inhibited,inhibited
